In patent publication US20230416248A1, “COMPOUNDS AND USES THEREOF” (Foghorn Therapeutics Inc., priority 2020, published 2023):
Like-named read-outs stand apart in the source and are kept apart here.

Tests used:
BRM = molecular target: T1, BRM (Homo sapiens, UniProt P51531); experiment: ATPase catalytic activity of BRM, ADP-Glo in vitro biochemical assay; details: for IC50: 30 nM BRM, 400 μM ATP; for Ratio* (BRG1 IC50 (μM) divided by BRM IC50 (μM)): selectivity ratio BRG1 IC50 / BRM IC50
T1 construct: made in house; host or cells: High Five insect cells
T1 sequence (P51531 whole entry): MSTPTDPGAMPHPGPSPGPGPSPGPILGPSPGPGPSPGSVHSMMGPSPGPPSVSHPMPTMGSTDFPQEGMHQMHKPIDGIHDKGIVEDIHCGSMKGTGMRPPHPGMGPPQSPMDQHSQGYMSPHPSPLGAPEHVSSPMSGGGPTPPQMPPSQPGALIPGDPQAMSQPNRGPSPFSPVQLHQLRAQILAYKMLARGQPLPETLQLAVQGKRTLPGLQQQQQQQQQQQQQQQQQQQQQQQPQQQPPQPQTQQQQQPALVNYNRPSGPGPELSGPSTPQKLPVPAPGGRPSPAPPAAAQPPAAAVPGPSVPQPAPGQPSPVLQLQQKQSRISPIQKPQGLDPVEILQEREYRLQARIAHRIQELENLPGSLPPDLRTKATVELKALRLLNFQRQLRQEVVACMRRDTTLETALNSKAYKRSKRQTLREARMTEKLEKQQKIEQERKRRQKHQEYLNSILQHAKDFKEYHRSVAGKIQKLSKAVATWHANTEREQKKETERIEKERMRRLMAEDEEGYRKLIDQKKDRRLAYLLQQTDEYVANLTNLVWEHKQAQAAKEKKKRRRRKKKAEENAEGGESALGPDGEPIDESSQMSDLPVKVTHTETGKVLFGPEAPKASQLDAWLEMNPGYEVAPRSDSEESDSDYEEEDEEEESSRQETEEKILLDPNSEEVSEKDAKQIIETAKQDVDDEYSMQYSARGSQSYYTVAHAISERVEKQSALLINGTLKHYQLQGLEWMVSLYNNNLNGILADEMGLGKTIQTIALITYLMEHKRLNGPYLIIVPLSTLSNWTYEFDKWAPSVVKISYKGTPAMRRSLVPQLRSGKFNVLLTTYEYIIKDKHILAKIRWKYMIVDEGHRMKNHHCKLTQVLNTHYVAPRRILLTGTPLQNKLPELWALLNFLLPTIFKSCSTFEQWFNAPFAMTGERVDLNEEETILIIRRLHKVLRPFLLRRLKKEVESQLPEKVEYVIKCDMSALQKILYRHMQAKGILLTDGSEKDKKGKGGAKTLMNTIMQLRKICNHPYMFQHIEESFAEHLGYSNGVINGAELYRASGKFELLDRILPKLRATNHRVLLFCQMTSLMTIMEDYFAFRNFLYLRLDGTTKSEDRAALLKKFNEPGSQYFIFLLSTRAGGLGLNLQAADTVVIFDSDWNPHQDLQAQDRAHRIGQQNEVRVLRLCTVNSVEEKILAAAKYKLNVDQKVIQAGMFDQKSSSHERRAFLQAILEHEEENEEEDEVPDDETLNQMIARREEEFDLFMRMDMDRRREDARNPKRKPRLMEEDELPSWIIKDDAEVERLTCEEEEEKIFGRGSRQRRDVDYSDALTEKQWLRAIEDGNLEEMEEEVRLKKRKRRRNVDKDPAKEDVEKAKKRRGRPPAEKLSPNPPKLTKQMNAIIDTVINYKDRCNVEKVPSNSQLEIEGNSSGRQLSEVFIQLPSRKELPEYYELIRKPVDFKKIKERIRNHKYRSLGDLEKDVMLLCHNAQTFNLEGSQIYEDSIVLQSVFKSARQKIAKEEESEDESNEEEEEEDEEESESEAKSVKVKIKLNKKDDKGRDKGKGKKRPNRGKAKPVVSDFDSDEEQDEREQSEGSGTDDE
How it was run: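 ADP-Glo luminescence, after depletion of leftover ATP and conversion of ADP, reported the activity. The 1 h room-temperature reaction held 400 μM ATP, 20 nM salmon sperm DNA and 30 nM BRM in 20 mM Tris pH 8, 20 mM MgCl2, 50 mM NaCl, 0.1% Tween-20, 1 mM DTT.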

BRG-1 = molecular target: T2, BRG-1 (Homo sapiens, UniProt P51532); experiment: ATPase catalytic activity of BRG-1, ADP-Glo in vitro biochemical assay; details: 30 nM BRG-1, 400 μM ATP, read-out: BRG1 IC50
T2 construct: made in house; host or cells: High Five insect cells
T2 sequence (P51532 whole entry): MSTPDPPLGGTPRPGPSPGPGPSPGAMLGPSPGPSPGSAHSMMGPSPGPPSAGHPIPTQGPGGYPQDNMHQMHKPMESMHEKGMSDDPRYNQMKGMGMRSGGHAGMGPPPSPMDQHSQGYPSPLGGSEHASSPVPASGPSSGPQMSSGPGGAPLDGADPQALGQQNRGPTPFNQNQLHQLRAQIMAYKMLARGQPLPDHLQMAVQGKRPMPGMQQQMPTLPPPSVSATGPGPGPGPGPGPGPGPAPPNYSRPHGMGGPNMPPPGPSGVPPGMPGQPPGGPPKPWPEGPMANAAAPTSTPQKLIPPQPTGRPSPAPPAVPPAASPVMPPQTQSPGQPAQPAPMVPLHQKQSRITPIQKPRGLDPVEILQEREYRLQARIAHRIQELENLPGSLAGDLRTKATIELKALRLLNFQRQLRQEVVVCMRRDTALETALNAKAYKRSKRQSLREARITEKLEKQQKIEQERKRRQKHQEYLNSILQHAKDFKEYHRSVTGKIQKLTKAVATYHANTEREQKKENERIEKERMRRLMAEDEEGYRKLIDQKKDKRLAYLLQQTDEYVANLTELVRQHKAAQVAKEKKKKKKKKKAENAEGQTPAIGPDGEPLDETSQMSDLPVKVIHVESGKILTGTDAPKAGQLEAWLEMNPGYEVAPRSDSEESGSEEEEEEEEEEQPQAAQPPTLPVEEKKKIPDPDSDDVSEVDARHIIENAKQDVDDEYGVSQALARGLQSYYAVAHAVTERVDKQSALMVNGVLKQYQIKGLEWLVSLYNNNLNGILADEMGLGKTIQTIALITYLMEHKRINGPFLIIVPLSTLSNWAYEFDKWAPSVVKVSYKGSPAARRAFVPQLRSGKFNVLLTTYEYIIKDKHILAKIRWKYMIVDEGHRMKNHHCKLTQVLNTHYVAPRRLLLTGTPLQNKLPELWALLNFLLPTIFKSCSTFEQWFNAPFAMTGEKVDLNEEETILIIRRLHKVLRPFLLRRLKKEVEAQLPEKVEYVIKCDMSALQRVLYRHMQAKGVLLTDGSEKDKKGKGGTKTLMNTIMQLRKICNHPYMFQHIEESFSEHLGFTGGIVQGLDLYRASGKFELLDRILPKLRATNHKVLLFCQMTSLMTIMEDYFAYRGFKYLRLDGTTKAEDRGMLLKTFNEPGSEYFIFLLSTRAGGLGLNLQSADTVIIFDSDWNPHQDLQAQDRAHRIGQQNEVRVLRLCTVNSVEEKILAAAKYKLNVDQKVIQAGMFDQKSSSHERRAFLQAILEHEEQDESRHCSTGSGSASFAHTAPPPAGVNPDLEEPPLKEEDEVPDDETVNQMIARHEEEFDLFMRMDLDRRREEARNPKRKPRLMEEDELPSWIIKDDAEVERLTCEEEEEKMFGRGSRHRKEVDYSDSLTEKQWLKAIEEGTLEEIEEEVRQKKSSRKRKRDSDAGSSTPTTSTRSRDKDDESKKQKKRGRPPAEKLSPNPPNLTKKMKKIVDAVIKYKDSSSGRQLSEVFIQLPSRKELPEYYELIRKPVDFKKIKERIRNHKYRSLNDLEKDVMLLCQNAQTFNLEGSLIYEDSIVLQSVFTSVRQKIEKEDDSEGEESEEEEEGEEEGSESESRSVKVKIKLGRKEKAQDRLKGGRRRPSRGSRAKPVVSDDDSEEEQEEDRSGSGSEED
How it was run: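 In this in vitro format, BRG-1 hydrolysis product ADP is detected via a two-step ADP-Glo workup (ATP removal, then ADP-to-ATP conversion with luciferase detection) followed by a luminescence read.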

[1] = ATPase catalytic activity, ADP-Glo

Row | Structure (SMILES) | IC50 (BRM; [1]) [nM] | Ratio* (BRM; ratio of BRG1 IC50 to BRM IC50) | IC50 (BRG-1; [1]) [nM] | IC50 (BRM; ADP-Glo ATPase assay) [nM] | Ratio* (BRM; ratio BRG1 IC50 / BRM IC50) | IC50 (BRG-1; ADP-Glo ATPase assay) [nM] | Ratio* (BRG1 IC50 (μM) divided by BRM IC50 (μM)) (BRM)
1 | C[C@@H]1CN(c2cccc(-c3ccc4cnc(CNC(=O)c5ccc6c(c5)S(=O)(=O)CC[C@H](C5CC5)O6)cc4n3)n2)C[C@H](C)O1 [Compound 435] | 230 | 18.45 | 4250 |  |  |  | 
2 | CN(C)c1cc2c(cn1)N(c1ccc3cnc(CNC(=O)c4ccc5c(c4)S(=O)(=O)CCOC5)cc3n1)CCO2 [Compound 803] |  |  |  | 8.1 | 12.88 | 105 | 
3 | Cc1ncc(C(=O)NCc2cc3nc(-c4cncc(C5CC5)n4)ccc3cn2)cc1S(C)(=O)=O [Compound 298] |  |  |  | 221 |  | 2190 | 9.90
4 | O=C(NCc1cc2nc(N3CCN(C4CC4)c4cc(C5CC5)cnc43)ccc2cn1)c1ccc2c(c1)S(=O)(=O)CCOC2 [Compound 756] |  |  |  | 15.1 | 11.62 | 176 | 
5 | COCc1cc(C)c2c(n1)N(c1ccc3cnc(CNC(=O)c4ccc5c(c4)S(=O)(=O)CCOC5)cc3n1)CCC2 [Compound 816] |  |  |  | 42.3 | 18.04 | 764 | 
6 | O=C(NCc1cc2nc(-c3cccc(C4=CCOCC4)n3)ccc2cn1)c1ccc2c(c1)S(=O)(=O)CCOC2 [Compound 183] |  |  |  | 8.9 |  | 101 | 11.33
7 | O=C(NCc1cc2nc(-c3cccc(OCC4CC4)c3)ccc2cn1)c1ccc2c(c1)S(=O)(=O)CCOC2 [Compound 820] |  |  |  | 96.1 | 14.31 | 1380 | 
8 | CN(c1cccc(-c2ccc3cnc(CNC(=O)c4ccc5c(c4)S(=O)(=O)CCOC5)cc3n2)n1)[C@H]1CCOC1 [Compound 117] |  |  |  | 44.6 |  | 313 | 7.01
9 | CO[C@@H]1C[C@H]1N(C)c1cccc(-c2ccc3cnc(CNC(=O)c4ccc5c(c4)S(=O)(=O)[C@@H](C)COC5)cc3n2)n1 [Compound 672] | 15.2 | 13.70 | 209 |  |  |  | 
10 | O=C(NCc1cc2nc(-c3cccc(OC(F)(F)F)n3)ccc2cn1)c1ccc2c(c1)S(=O)(=O)CCOC2 [Compound 237] |  |  |  | 22.7 |  | 468 | 20.63
11 | C[C@@H]1CN(c2cccc(-c3ccc4cnc(CNC(=O)c5ccc6c(c5)S(=O)(=O)CCC5(CC5)O6)cc4n3)n2)C[C@H](C)O1 [Compound 704] |  |  |  | 91.1 | 23.18 | 2110 | 
12 | O=C(NCc1cc2cc(N3CCCc4cc(-c5cn[nH]c5)ccc43)ccc2cn1)c1ccc2c(c1)S(=O)(=O)CCOC2 [Compound 789] |  |  |  | 5.9 | 5.10 | 30.3 | 
13 | CS(=O)(=O)c1cc(C(=O)NCc2cc3nc(-c4cncc(C5CC5)n4)ccc3cn2)ccc1Cl [Compound 294] |  |  |  | 156 |  | 2710 | 17.37
14 | O=C(NCc1cc2nc(-c3cccc([C@]45CCOCC4C5)n3)ccc2cn1)c1ccc2c(c1)S(=O)(=O)CCOC2 (stereo partly drawn) [Compound 377] | 12.4 | 12.27 | 152 |  |  |  | 
15 | C[C@@H](C1COC1)N(C)c1cccc(-c2ccc3cnc(CNC(=O)c4ccc5c(c4)S(=O)(=O)CCOC5)cc3n2)n1 [Compound 471] | 167 | 5.29 | 884 |  |  |  | 
16 | CN(C)c1cnc2c(c1)OCCN2c1ccc2cnc(CNC(=O)c3ccc4c(c3)S(=O)(=O)CCOC4)cc2c1 [Compound 790] |  |  |  | 12.2 | 5.03 | 61.4 | 
17 | O=C(NCc1cc2nc(N3CCCc4cc(F)c(OCC5COC5)cc43)ccc2cn1)c1ccc2c(c1)S(=O)(=O)CCOC2 [Compound 726] |  |  |  | 24.7 | 11.83 | 292 | 
18 | CN1CCC2(c3cccc(-c4ccc5cnc(CNC(=O)c6ccc7c(c6)S(=O)(=O)CCOC7)cc5n4)n3)CC2C1 (stereo not drawn) [Compound 699] | 275 | 8.04 | 2210 |  |  |  | 

Row | Structure (SMILES) | IC50 (BRM; [1]) [nM] | Ratio* (BRM; ratio of BRG1 IC50 to BRM IC50) | IC50 (BRG-1; [1]) [nM] | IC50 (BRM; ADP-Glo ATPase assay) [nM] | Ratio* (BRM; ratio BRG1 IC50 / BRM IC50) | IC50 (BRG-1; ADP-Glo ATPase assay) [nM] | Ratio* (BRG1 IC50 (μM) divided by BRM IC50 (μM)) (BRM)
19 | COc1nn(C2COC2)cc1-c1ccc2cnc(CNC(=O)c3ccc4c(c3)S(=O)(=O)CCOC4)cc2c1 [Compound 261] |  |  |  | 16.5 |  | 233 | 14.10
20 | C[C@@H]1CN(c2cccc(-c3ccc4cnc(CNC(=O)c5cnc6c(c5)S(=O)(=O)[C@@H](C)COC6)cc4c3)n2)C[C@H](C)O1 [Compound 769] |  |  |  | 8.4 | 3.16 | 26.4 | 
21 | C[C@@H]1CN(c2cccc(-c3ccc4cnc(CNC(=O)c5cc(F)c6c(c5)S(=O)(=O)CC[C@H](C)O6)cc4n3)n2)C[C@H](C)O1 [Compound 495] | 63.1 | 15.54 | 981 |  |  |  | 
22 | O=C(NCc1cc2nc(N3CCOc4ccc([C@@H](F)CF)nc43)ccc2cn1)c1ccc2c(c1)S(=O)(=O)CCOC2 [Compound 854] |  |  |  | 105 | 19.74 | 2070 | 
23 | Cc1cnc2c(c1)CCCN2c1ccc2cnc(CNC(=O)c3cc(F)c4c(c3)S(=O)(=O)CCOC4)cc2n1 [Compound 395] | 4.1 | 14.47 | 58.6 |  |  |  | 
24 | [2H]C1([2H])OC([2H])([2H])[C@H](C)S(=O)(=O)c2cc(C(=O)NCc3cc4nc(N5CCOc6cc(C)cnc65)ccc4cn3)ccc21 [Compound 741] |  |  |  | 6.6 | 14.12 | 93.4 | 
25 | CS(=O)(=O)c1cc(C(=O)NCc2cc3nc(-c4cncc(C5CC5)n4)ccc3cn2)ccc1F [Compound 292] |  |  |  | 667 |  | 5000 | 7.50
26 | O=C(NCc1cc2nc(-c3cccc(Cl)c3)ccc2cn1)c1ccc2c(c1)S(=O)(=O)CCOC2 [Compound 258] |  |  |  | 221 |  | 4120 | 18.63
27 | Cn1ncc2c1CCCN2c1ccc2cnc(CNC(=O)c3ccc4c(c3)S(=O)(=O)CCOC4)cc2n1 [Compound 380] | 98.2 | 5.20 | 511 |  |  |  | 
28 | O=C(NCc1cc2nc(N3CCCc4ccc(C5CCOC5)nc43)ccc2cn1)c1ccc2c(c1)S(=O)(=O)CCOC2 (stereo not drawn) [Compound 630] | 48 | 24.14 | 1160 |  |  |  | 
29 | C[C@@H]1CN(c2cccc(-c3ccc4cnc(CNC(=O)c5cc(F)c6c(c5)S(=O)(=O)[C@H](C)CN6C)cc4n3)n2)C[C@H](C)O1 [Compound 642] | 156 | 18.87 | 2950 |  |  |  | 
30 | C[C@@H]1CC(c2cccc(-c3ccc4cnc(CNC(=O)c5ccc6c(c5)S(=O)(=O)CCOC6)cc4n3)n2)=C[C@H](C)O1 [Compound 46] |  |  |  | 9.3 |  | 45.9 | 4.92
31 | COCCOc1cc(C(F)F)ccc1-c1ccc2cnc(CNC(=O)c3ccc4c(c3)S(=O)(=O)CCOC4)cc2n1 [Compound 366] | 324 | 9.14 | 2960 |  |  |  | 
32 | O=C(NCc1cc2nc(N3CCOc4cccnc43)ccc2cn1)c1ccc2c(c1)S(=O)(=O)CCOC2 [Compound 367] | 8.4 | 17.87 | 151 |  |  |  | 
33 | COCCN1c2cccc(-c3ccc4cnc(CNC(=O)c5ccc6c(c5)S(=O)(=O)CCOC6)cc4n3)c2OCC1C (stereo not drawn) [Compound 326] | 9.9 | 8.22 | 81 |  |  |  | 
34 | Cc1cnc2c(c1C)CCCN2c1ccc2cnc(CNC(=O)c3ccc4c(c3)S(=O)(=O)CCOC4)cc2n1 [Compound 429] | 7.4 | 10.32 | 76.4 |  |  |  | 
35 | Cc1cc(C(=O)NCc2cc3nc(-c4cccc(N5C[C@@H](C)O[C@@H](C)C5)n4)ccc3cn2)cc2c1COCCS2(=O)=O [Compound 101] |  |  |  | 7.9 |  | 57.7 | 7.32
36 | C[C@@H]1CN(c2cccc(-c3ccc4cnc(CNC(=O)c5ccc(CC(F)F)c(S(C)(=O)=O)c5)cc4n3)n2)C[C@H](C)O1 [Compound 138] |  |  |  | 10.8 |  | 50.7 | 4.70
